Counter-ions that a name gives are not always drawn.

T2 sequence (P10636 1-441 isoform P10636-8): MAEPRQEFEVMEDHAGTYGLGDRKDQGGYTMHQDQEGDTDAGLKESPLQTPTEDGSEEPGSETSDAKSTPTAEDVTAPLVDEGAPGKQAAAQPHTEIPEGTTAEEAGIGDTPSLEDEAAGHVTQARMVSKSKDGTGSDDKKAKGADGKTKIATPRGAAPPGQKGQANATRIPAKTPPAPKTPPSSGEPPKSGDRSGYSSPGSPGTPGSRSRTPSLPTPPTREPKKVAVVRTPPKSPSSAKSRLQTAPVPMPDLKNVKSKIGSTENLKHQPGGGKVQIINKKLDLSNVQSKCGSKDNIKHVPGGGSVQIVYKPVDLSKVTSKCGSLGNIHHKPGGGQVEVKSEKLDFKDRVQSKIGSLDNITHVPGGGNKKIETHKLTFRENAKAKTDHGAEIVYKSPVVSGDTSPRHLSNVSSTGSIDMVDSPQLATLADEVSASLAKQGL

In one experiment the target is T1, Tau K18 fragment aggregates (amino acids 244 to 372 of human Tau441) (Homo sapiens, UniProt P10636).
T1 construct: encompassing amino acids 244 to 372 of the longest isoform (2N4R) of human Tau441; purchased Biotechne; host or cells: bacteria
T1 sequence (P10636 561-689): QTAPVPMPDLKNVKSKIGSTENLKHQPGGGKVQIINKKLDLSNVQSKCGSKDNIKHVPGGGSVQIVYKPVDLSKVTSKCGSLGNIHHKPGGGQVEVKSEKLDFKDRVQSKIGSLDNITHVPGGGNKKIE
The experiment can be described thus: Tau K18 disaggregation assay by ThT. It is filed as biochemical. The settings on record: ThT fluorescence; 2 μM K18 aggregates, 30 minutes at RT. Here is the method: Tau K18 Disaggregation Assay by ThT
The Tau K18 fragment, encompassing amino acids 244 to 372 of the longest isoform (2N4R) of human Tau441, was expressed in bacteria and purified (Biotechne). For the K18 disaggregation assay by ThT, 35 μM of recombinant K18 in PBS were aggregated for 24 hours at 37° C. in presence of 25 μM of heparin (Sigma-Aldrich) and 10 mM of 1,4-Dithiothreito (DTT from Sigma-Aldrich) under shaking at 750 RPM. Compound 1 was dissolved in anhydrous dimethyl sulfoxide (DMSO, Sigma-Aldrich) to reach a concentration of 10 mM. K18 aggregates and serial dilutions of compounds were mixed together in PBS (volume 50 μL) to a final concentration of 2 μM of K18 aggregates and from 400 to 0.1 μM of Compound 1. The mixture was incubated for 30 minutes at room temperature (RT), then 40 μL of this mixture were transferred into a black 384-well plate assay (Perkin-Elmer) and mixed with 10 μL of 100 μM ThT in 250 mM glycine (both from Sigma-Aldrich) in PBS. Fluorescence (relative fluorescence units; RFU) was measured in monoplicate or duplicate on a Tecan reader (excitation: 440 nm; emission: 485 nm). Percentage of K18 disaggregation was then calculated and half maximal effective concentration (EC50) was determined using GraphPad Prism version 8 (GraphPad Software) assuming a one-binding site fitting model, see Table 3 and Table 4.
Compound `c1ccc2c(C3CCN(c4cnc5sc(N6CCOCC6)nc5c4)CC3)n[nH]c2c1` [Example 42, 4-(6-(4-(1H-indazol-3-yl)piperidin-1-yl)thiazolo[5,4-b]pyridin-2-yl)morpholine] yielded an EC50 of 10 to 50 µM.
Still for that read-out and setting: with `Cn1cc(C2CCN(c3ccc4oc(N5CCOCC5)nc4c3)C2)c2cc(F)cnc21` (stereo not drawn) [Example 34, 5-(3-(5-fluoro-1-methyl-1H-pyrrolo[2,3-b]pyridin-3-yl)pyrrolidin-1-yl)-2-morpholinobenzo[d]oxazole] the figure was 1 to 10 µM.
Take `Cn1cc(C2CCN(c3ccc4oc(N5CCOCC5)nc4c3)CC2)c2cc(F)cnc21` [Example 23, 5-(4-(5-fluoro-1-methyl-1H-pyrrolo[2,3-b]pyridin-3-yl)piperidin-1-yl)-2-morpholinobenzo[d]oxazole]: the EC50 is 10 to 50 µM.
The same measure, in the same setting: the value for `c1ccc2c(C3CCN(c4cc5oc(N6CCOCC6)nc5cn4)CC3)c[nH]c2c1` [Example 58, 6-(4-(1H-indol-3-yl)piperidin-1-yl)-2-morpholinooxazolo[4,5-c]pyridine] was 10 to 50 µM; that for `c1ccc2c(N3CCN(c4ccc5oc(N6CCOCC6)nc5c4)CC3)c[nH]c2c1` [Example 56, 5-(4-(1H-indol-3-yl)piperazin-1-yl)-2-morpholinobenzo[d]oxazole] was 1 to 10 µM.
Same read-out and setting: with `c1ccc2c(C3CCN(c4ccc5nc(N6CCOCC6)sc5n4)CC3)c[nH]c2c1` [Example 108, 4-(5-(4-(1H-indol-3-yl)piperidin-1-yl)thiazolo[5,4-b]pyridin-2-yl)morpholine hydrochloride] the figure was 10 to 50 µM.
On the same count and under the same terms, the value for `c1ccc2c(C3CCN(c4cc5nc(N6CCOCC6)sc5cn4)CC3)n[nH]c2c1` [Example 66, 4-(6-(4-(1H-indazol-3-yl)piperidin-1-yl)thiazolo[5,4-c]pyridin-2-yl)morpholine] was below 1 µM; that for `c1cc2c(C3CCN(c4ccc5oc(N6CCOCC6)nc5c4)CC3)c[nH]c2cn1` [Example 54, 5-(4-(1H-pyrrolo[2,3-c]pyridin-3-yl)piperidin-1-yl)-2-morpholinobenzo[d]oxazole] was 10 to 50 µM; that for `O=C(Nc1ccc2nc(N3CCOCC3)oc2c1)c1c[nH]c2ncccc12` [Example 15, N-(2-morpholinobenzo[d]oxazol-6-yl)-1H-pyrrolo[2,3-b]pyridine-3-carboxamide] was 10 to 50 µM.
Compound `Fc1cnc2c(C3CCN(c4ccc5nc(N6CCOCC6)oc5c4)CC3)c[nH]c2c1` [Example 103, 6-(4-(6-fluoro-1H-pyrrolo[3,2-b]pyridin-3-yl)piperidin-1-yl)-2-morpholinobenzo[d]oxazole] came in with an EC50 of 1 to 10 µM.
Still for that read-out and setting: with `c1ccc2c(C3CCN(c4ccc5nc(N6CCOCC6)oc5n4)CC3)c[nH]c2c1` [Example 101, 5-(4-(1H-indol-3-yl)piperidin-1-yl)-2-morpholinooxazolo[5,4-b]pyridine] the figure was 10 to 50 µM; with `O=C(Nc1ccc2nc(N3CCOCC3)oc2c1)c1n[nH]c2ccccc12` [Example 16, N-(2-morpholinobenzo[d]oxazol-6-yl)-1H-indazole-3-carboxamide], 10 to 50 µM.
The compound `c1ccc2c(C3CCN(c4ccc5nc(N6CCOCC6)oc5c4)CC3)c[nH]c2c1` [Example 52, 6-(4-(1H-indol-3-yl)piperidin-1-yl)-2-morpholinobenzo[d]oxazole] showed an EC50 of 10 to 50 µM.
The same measure, in the same setting: the value for `Fc1cnc2c(C3CCN(c4ccc5oc(N6CCOCC6)nc5c4)CC3)c[nH]c2c1` [Example 53, 5-(4-(6-fluoro-1H-pyrrolo[3,2-b]pyridin-3-yl)piperidin-1-yl)-2-morpholinobenzo[d]oxazole] was 1 to 10 µM.
Still for that read-out and setting: the value for `c1ccc2c(C3CCN(c4cc5nc(N6CCOCC6)sc5cn4)CC3)c[nH]c2c1` [Example 67, 4-(6-(4-(1H-indol-3-yl)piperidin-1-yl)thiazolo[5,4-c]pyridin-2-yl)morpholine] was below 1 µM; that for `c1ccc2c(C3CCN(c4ccc5sc(N6CCOCC6)nc5n4)CC3)n[nH]c2c1` [Example 62, 4-(5-(4-(1H-indazol-3-yl)piperidin-1-yl)thiazolo[4,5-b]pyridin-2-yl)morpholine] was 1 to 10 µM; that for `Cn1cc(C2CCN(c3ccc4nc(N5CCOCC5)sc4n3)CC2)c2cc(F)cnc21` [Example 57, 4-(5-(4-(5-fluoro-1-methyl-1H-pyrrolo[2,3-b]pyridin-3-yl)piperidin-1-yl)thiazolo[5,4-b]pyridin-2-yl)morpholine] was 10 to 50 µM.
In turn, `Fc1ccc2[nH]cc(C3CCN(c4ccc5oc(N6CCOCC6)nc5c4)CC3)c2c1` [Example 69, 5-(4-(5-fluoro-1H-indol-3-yl)piperidin-1-yl)-2-morpholinobenzo[d]oxazole] came in with an EC50 of 1 to 10 µM.
Same read-out and setting: the value for `c1ccc2c(C3CCN(c4ccc5nc(N6CCOCC6)oc5n4)CC3)n[nH]c2c1` [Example 64, 5-(4-(1H-indazol-3-yl)piperidin-1-yl)-2-morpholinooxazolo[5,4-b]pyridine] was 1 to 10 µM; that for `Cn1cc(C2CC3CN(c4ccc5oc(N6CCOCC6)nc5c4)CC3C2)c2cc(F)cnc21` (stereo not drawn) [Example 112, 5-(5-(5-fluoro-1-methyl-1H-pyrrolo[2,3-b]pyridin-3-yl)hexahydrocyclopenta[c]pyrrol-2(1H)-yl)-2-morpholinobenzo[d]oxazole hydrochloride] was 1 to 10 µM; that for `c1ccc2c(C3CCN(c4cnc5sc(N6CCOCC6)nc5c4)CC3)c[nH]c2c1` [Example 65, 4-(6-(4-(1H-indol-3-yl)piperidin-1-yl)thiazolo[5,4-b]pyridin-2-yl)morpholine] was 1 to 10 µM.
On the same count and under the same terms, with `c1ccc2c(C3CCN(c4ccc5sc(N6CCOCC6)nc5c4)CC3)n[nH]c2c1` [Example 63, 4-(5-(4-(1H-indazol-3-yl)piperidin-1-yl)benzo[d]thiazol-2-yl)morpholine] the figure was 10 to 50 µM; with `c1ccn2c(C3CCN(c4ccc5nc(N6CCOCC6)oc5c4)CC3)cnc2c1` [Example 59, 6-(4-(imidazo[1,2-a]pyridin-3-yl)piperidin-1-yl)-2-morpholinobenzo[d]oxazole], 1 to 10 µM; with `c1cc2[nH]cc(C3CCN(c4ccc5oc(N6CCOCC6)nc5c4)CC3)c2cn1` [Example 55, 5-(4-(1H-pyrrolo[3,2-c]pyridin-3-yl)piperidin-1-yl)-2-morpholinobenzo[d]oxazole], 1 to 10 µM.

The next experiment addresses T2, flTau aggregates (longest isoform of human Tau, 2N4R) (Homo sapiens, UniProt P10636).
T2 construct: 35 μM of recombinant full-length (fl) Tau in phosphate-buffered saline (PBS) were aggregated; purchased Biotechne; host or cells: bacteria
The experiment can be described thus: Full-length Tau (flTau) disaggregation assay by Thioflavin T (ThT). It is filed as biochemical. The settings on record: ThT fluorescence; 60 nM flTau aggregates, 30 minutes at RT; read-out: flTau disaggregation EC50. Here is the method: Full-Length Tau (flTau) Disaggregation Assay by Thioflavin T (ThT)
The longest isoform of human Tau (2N4R; 441 amino acids) was expressed in bacteria and purified (Biotechne). For the Tau disaggregation assay by ThT, 35 μM of recombinant full-length (fl) Tau in phosphate-buffered saline (PBS) were aggregated for 72 hours at 37° C. in presence of 35 μM of heparin (Sigma-Aldrich) and 10 mM of […] (Sigma-Aldrich) under shaking at 1000 RPM. Compound 1 was dissolved in anhydrous dimethyl sulfoxide (DMSO, Sigma-Aldrich) to reach a concentration of 2.5 mM. flTau aggregates and serial dilutions of compound 1 were mixed together in PBS (volume 50 μL) to a final concentration of 60 nM of flTau aggregates and from 20 to 0.0012 μM of Compound 1. The mixture was incubated for 30 minutes at room temperature (RT), then 40 μL of this mixture were transferred into a black 384-well plate assay (Perkin-Elmer) and mixed with 10 μL of 20 μM ThT in 250 mM glycine (both from Sigma-Aldrich) in PBS. Fluorescence (relative fluorescence units; RFU) was measured in monoplicate or duplicate on a Tecan reader (excitation: 440 nm; emission: 485 nm). Percentage of flTau disaggregation was then calculated and the half maximal effective concentration (EC50) was determined using GraphPad Prism version 8 (GraphPad Software) assuming a one-binding site fitting model, see Table 3 and Table 4.
Turning to `Fc1cnc2c(C3CCN(c4ccc5nc(N6CCOCC6)sc5c4)CC3)c[nH]c2c1` [Example 30, 4-(6-(4-(6-fluoro-1H-pyrrolo[3,2-b]pyridin-3-yl)piperidin-1-yl)benzo[d]thiazol-2-yl)morpholine], the EC50 was below 1 µM.
In the case of `Cn1cc(C2CCN(c3ccc4nc(N5CCOCC5)sc4c3)C2)c2cc(F)cnc21` (stereo not drawn) [Example 83, 4-(6-(3-(5-fluoro-1-methyl-1H-pyrrolo[2,3-b]pyridin-3-yl)pyrrolidin-1-yl)benzo[d]thiazol-2-yl)morpholine], the EC50 is below 1 µM.
With `O=C(Nc1ccc2oc(N3CCOCC3)nc2c1)c1n[nH]c2ccccc12` [Example 18, N-(2-morpholinobenzo[d]oxazol-5-yl)-1H-indazole-3-carboxamide], the EC50 lay within 1 to 10 µM.
Still for that read-out and setting: with `Cn1cc(C2CCN(c3ccc4oc(N5CCOCC5)nc4c3)CC2)c2ccccc21` [Example 68, 5-(4-(1-methyl-1H-indol-3-yl)piperidin-1-yl)-2-morpholinobenzo[d]oxazole] the figure was 1 to 10 µM.
Turning to `c1ccc2c(C3CCN(c4cc5oc(N6CCOCC6)nc5cn4)CC3)n[nH]c2c1` [Example 72, 6-(4-(1H-indazol-3-yl)piperidin-1-yl)-2-morpholinooxazolo[4,5-c]pyridine], the EC50 lay within 10 to 50 µM.
For `Fc1ccc2c(C3CCN(c4ccc5oc(N6CCOCC6)nc5c4)CC3)n[nH]c2c1` [Example 74, 5-(4-(6-fluoro-1H-indazol-3-yl)piperidin-1-yl)-2-morpholinobenzo[d]oxazole], the EC50 is 1 to 10 µM.

The term EC50 denotes the concentration giving half of the maximal effect.

These data come from patent US20230391774A1, “Novel Compounds” (AC Immune SA, priority 2020, published 2023).
